Results published in patent US20130216615A1, “Pharmaceutical Compositions Containing Dimethyl Fumarate” (priority 2012, published 2013).
Where a name gives a salt, the structure may show the parent alone.

Columns and labels:
[1] = human, in vivo
Protocol: (§1) A randomized, double-blind, placebo-controlled study in healthy adult volunteers was conducted in which a total of 56 subjects were randomized to receive 4 days' treatment with DMF 240 mg BID, DMF 240 mg TID, DMF 360 mg BID or placebo, with aspirin 325 mg or matching aspirin placebo administered 30 minutes before each DMF or DMF placebo dose. An additional 8 patients were assigned to a modified dosing group receiving DMF 120 mg or placebo 6 times daily (3 doses at hourly intervals in the morning and a further 3 doses at hourly intervals in the evening). There were 6 subjects per group, except for the modified dosing regimen, where an additional 2 subjects were assigned to placebo.
(§2) Flushing severity was assessed by 2 validated subject-reported measures, the global Flushing Severity Scale (GFSS) and the Flushing Severity Scale (FSS), which are adapted from the flushing scale described in Norquist J M, et al. Curr Med Res Opin 23:1547-1560 (2007). Both of these measures rate flushing severity on a scale of 0-10, where 0=no flushing, 1-3=mild flushing, 4-6=moderate flushing, 7-9=severe flushing, and 10=extreme flushing. The GFSS is a visual-analogue scale measuring redness, warmth, tingling and itching of the skin experienced over the preceding 24 h. Subjects completed the GFSS immediately before the first dose of study drug (0 h) on days 1 to 4, again at 0 h on day 5 and once more at follow-up on day 11. On the FSS, subjects rated their overall flushing and 4 items describing specific flushing symptoms (redness, warmth, tingling, itching) at the time of administration of the questionnaire. The FSS scale was administered at 16 time points over 12 h (Hours 0, 0.5, 1, 1.5, 2, 2.5, 3, 4, 5, 6, 7, 8, 9, 10, 11, 12) on days 1 to 4 and once on day 5 (24 h after the first day 4 dose) to assess the quality and intensity of subject-reported flushing symptoms in real time. Subjects rated 5 items relating only to the period since they last answered the questionnaire and/or received study drug.

[2] = PK of DMF with or without aspirin in healthy adult volunteers, plasma MMF; format: in vivo, human; conditions: aspirin 325 mg 30 minutes before each DMF dose
Protocol: The concentration of MMF was determined by high pressure liquid chromatography with tandem mass spectrometry, using […] as the internal standard. Further pharmacokinetic parameters were derived by non-compartmental analysis

[3] = Laser Doppler perfusion of facial skin during flushing; format: in vivo, human; conditions: aspirin pretreatment before DMF
Protocol: Laser Doppler perfusion was used as an exploratory quantitative measure of facial skin perfusion during flushing. This technique uses non-invasive imaging of superficial tissue blood perfusion, recorded as Blood Perfusion Units on a relative units scale. Laser Doppler perfusion was measured at the same 16 timepoints as the FSS.

[4] = Subject-reported flushing severity (GFSS, FSS); conditions: 325 mg non-enteric coated aspirin 30 minutes prior to DMF dosing, healthy volunteer study
Protocol: as §1, §2

SMILES	flushing severity on the FSS [1]	mean GFSS score ([1]; 2 day)	effect of aspirin pretreatment on MMF concentration-time profiles [2]	magnitude of Doppler perfusion response [3]	occurrence and severity of flushing [4]
COC(=O)/C=C/C(=O)OC [DMF, dimethyl fumarate]	mild to moderate	1.5-3.5			
CC(=O)Oc1ccccc1C(=O)O [aspirin]			no apparent effect	decreased	reduce the occurrence and severity of flushing
